Counter-ions that a name gives are not always drawn. Like-named read-outs stand apart in the source and are kept apart here.
Test system: hPSC-SCs
[1] = HTS viability of hPSC-SCs in the presence of 30 mM glucose, Prestwick library, Table S4

For `C[N+](C)(C)CCCCCCCCCC[N+](C)(C)C` [Decamethonium bromide], the z.score.t [1] was −1.558.

`CC(=O)O[C@]1(C(C)=O)CC[C@H]2[C@@H]3C=C(C)C4=CC(=O)CC[C@@H]4[C@H]3CC[C@@]21C` [Nomegestrol acetate] showed a z.score.t [1] of 0.7296.

`COc1ccc(NS(=O)(=O)c2ccc(N)cc2)nn1` [Sulfamethoxypyridazine] gave a z.score.t [1] of 0.2139.

`CC(C)NCC(O)c1ccc2ccccc2c1` (stereo not shown) [Pronethalol hydrochloride] showed a z.score.t [1] of −0.4684.

In the case of `CCOC(=O)OC(C)OC(=O)[C@@H]1N2C(=O)[C@@H](NC(=O)[C@H](N)c3ccccc3)[C@H]2SC1(C)C` (stereo partly shown) [Bacampicillin hydrochloride], the z.score.t [1] was 0.3231.

In the case of `CC1COc2c(N3CCN(C)CC3)c(F)cc3c(=O)c(C(=O)O)cn1c23` (stereo not shown) [Ofloxacin], the z.score.t [1] was −1.243.

In the case of `O=C(O)CCC(=O)Nc1ccc(S(=O)(=O)Nc2nccs2)cc1` [Succinylsulfathiazole], the z.score.t [1] was −0.6792.

Compound `COc1c2c(cc3c1OCO3)CCN(C)C2` [Hydrocotarnine hydrobromide] has a z.score.t [1] of 1.168.

Compound `C[N+]1(C)CCOC(O)(c2ccc(-c3ccc(C4(O)C[N+](C)(C)CCO4)cc3)cc2)C1.[Br-].[Br-]` (stereo not shown) [Hemicholinium bromide] has a z.score.t of −0.07901.

`CC12CC3CC(C)(C1)CC(N)(C3)C2` [Memantine Hydrochloride] gave a z.score.t [1] of −0.9598.

With `CC1=CC(=O)C2=C(C)CC[C@@H]3[C@H](OC(=O)[C@H]3C)[C@@H]12` [Leucomisine] the z.score.t was 1.214.

For `O.O=C(O)[C@@H]1[C@H]2C[C@H]3c4[nH]c5ccccc5c4CCN3C[C@@H]2CC[C@@H]1O` [Yohimbinic acid monohydrate], the z.score.t was −0.2065.

`CN1Cc2c(N)cccc2C(c2ccccc2)C1` (stereo not shown) [Nomifensine maleate] gave a z.score.t [1] of −0.004573.

`O=C(O)[C@H](O)[C@@H](O)[C@H](O[C@@H]1O[C@H](CO)[C@H](O)[C@H](O)[C@H]1O)[C@H](O)CO` [Lactobionic acid] was tested, and the z.score.t [1] was 1.942.

`C=CCc1ccccc1OCC(O)CNC(C)C` (stereo not shown) [Alprenolol hydrochloride] was tested, and the z.score.t [1] was −0.2572.

`CN(C)[C@@H]1C(O)=C(C(N)=O)C(=O)[C@@]2(O)C(O)=C3C(=O)c4c(O)cccc4[C@@](C)(O)[C@H]3C[C@@H]12` [Tetracycline hydrochloride] showed a z.score.t [1] of −0.2425.

In the case of `CC(Cc1ccc(O)cc1)NCC(O)c1cc(O)cc(O)c1` (stereo not shown) [Fenoterol hydrobromide], the z.score.t was 0.8992.

For `C[C@]12N[C@H](Cc3ccccc31)c1ccccc12` [Dizocilpine maleate], the z.score.t was −0.1538.

Compound `NCc1ccccc1CC(=O)N[C@@H]1C(=O)N2C(C(=O)O)=C(CSc3nnnn3CC(=O)O)CS[C@H]12` [Ceforanide] has a z.score.t [1] of −0.5532.

Compound `CC(=O)OC(C)C[N+](C)(C)C` (stereo not shown) [Methacholine chloride] has a z.score.t [1] of 1.554.

For `CC(=O)O[C@H]1CC[C@@]2(C)C(=CC[C@@H]3[C@@H]2CC[C@]2(C)C(=O)CC[C@@H]32)C1` [Dehydroisoandosterone 3-acetate], the z.score.t was 0.7349.

`CCCCCCCCNC(C)C(O)c1ccc(SC(C)C)cc1` (stereo not shown) [Suloctidil] gave a z.score.t [1] of −0.649.

`COc1ccc2cc3[n+](cc2c1OC)CCc1cc2c(cc1-3)OCO2` [Berberine chloride] was tested, and the z.score.t [1] was 1.018.

Work on `Clc1cccc(Cl)c1N=C1NCCN1` [Clonidine hydrochloride] yielded a z.score.t [1] of 1.056.

With `CNCC(O)c1ccc(O)cc1` (racemic) [(+, −)-Synephrine] the z.score.t was −0.2329.

`CC(=O)SCC(Cc1ccccc1)C(=O)NCC(=O)OCc1ccccc1` (stereo not shown) [Racecadotril] gave a z.score.t [1] of −0.1853.

Work on `O.Oc1cc(O)c2c(c1)OC(c1ccc(O)c(O)c1)C(O)C2` (racemic) [Catechin-(+, −) hydrate] yielded a z.score.t [1] of 0.2361.

`CN1C(=O)CC(c2ccccc2)C1=O` (stereo not shown) [Phensuximide] gave a z.score.t [1] of 1.669.

Compound `CCOC(=O)c1ccc(N)cc1` [Benzocaine] has a z.score.t [1] of −0.8317.

`O=c1cc(-c2ccccc2)oc2cc(O)cc(O)c12` [Chrysin] was tested, and the z.score.t [1] was 0.2139.

Work on `Nc1nc(=O)c2c([nH]1)NCC(CNc1ccc(C(=O)N[C@@H](CCC(=O)[O-])C(=O)[O-])cc1)N2C=O.[Ca+2]` (stereo partly shown) [Folinic acid calcium salt] yielded a z.score.t [1] of 0.1244.

With `O=c1[nH]cnc2c1ncn2[C@H]1CC[C@@H](CO)O1` [Didanosine] the z.score.t [1] was −0.07933.

`C#CCN(C)CCCOc1ccc(Cl)cc1Cl` [Clorgyline hydrochloride] gave a z.score.t [1] of 0.1556.

`CC1(C)S[C@@H]2[C@H](NC(=O)Cc3ccccc3)C(=O)N2[C@H]1C(=O)O.CC1(C)S[C@@H]2[C@H](NC(=O)Cc3ccccc3)C(=O)N2[C@H]1C(=O)O.c1ccc(CNCCNCc2ccccc2)cc1` [Benzathine benzylpenicillin] showed a z.score.t [1] of −0.08998.

`COC1=CC(=O)O[C@@H](/C=C/c2ccccc2)C1` [Kawain] was tested, and the z.score.t was 0.9109.

`Clc1ccc(C(OCCN2CCCCC2)c2ccccc2)cc1` (stereo not shown) [Cloperastine hydrochloride] gave a z.score.t [1] of −1.185.

Compound `Br.C[N+]1([O-])[C@@H]2CC(OC(=O)[C@H](CO)c3ccccc3)C[C@H]1[C@@H]1O[C@@H]12` (stereo partly shown) [Scopolamin-N-oxide hydrobromide] has a z.score.t of −0.1983.

With `O=c1cc(-c2ccc(O)c(O)c2)oc2cc(O)cc(O)c12` [Luteolin] the z.score.t [1] was −0.7945.

Compound `O=C(CCCN1CCC(O)(c2ccc(Br)cc2)CC1)c1ccc(F)cc1` [Bromperidol] has a z.score.t [1] of 1.239.

With `COc1ccc2[nH]c3c(c2c1)CCN=C3C` [Methoxy-6-harmalan] the z.score.t was −0.1216.

With `COc1ccc([C@@H]2Sc3ccccc3N(CCN(C)C)C(=O)[C@@H]2OC(C)=O)cc1` [Diltiazem hydrochloride] the z.score.t [1] was 0.6906.

`CC(=O)/N=c1/sc(S(N)(=O)=O)nn1C` [Methazolamide] gave a z.score.t [1] of −0.3678.

Compound Carbinoxamine maleate salt has a z.score.t [1] of 0.07936.

For `CCN(CC)C(=O)N1CCN(C)CC1` [Diethylcarbamazine citrate], the z.score.t [1] was 0.378.

With `C[C@H](N)[C@H](O)c1ccc(O)c(O)c1` [Levonordefrin] the z.score.t was 0.1916.

`O=C(N/N=C/c1ccc([N+](=O)[O-])o1)c1ccc(O)cc1` [Nifuroxazide] gave a z.score.t [1] of 0.8023.

`CN(C)CCC(c1ccc(Br)cc1)c1ccccn1` (stereo not shown) [Brompheniramine maleate] gave a z.score.t [1] of −0.8478.

Work on `COCCCC/C(=N\OCCN)c1ccc(C(F)(F)F)cc1` [Fluvoxamine maleate] yielded a z.score.t [1] of 0.03957.

`CC[C@H]1OC(=O)[C@H](C)[C@@H](O[C@H]2C[C@@](C)(OC)[C@@H](O)[C@H](C)O2)[C@H](C)[C@@H](O[C@@H]2O[C@H](C)C[C@H](N(C)C)[C@H]2O)[C@](C)(O)C[C@@H](C)/C(=N\OCOCCOC)[C@H](C)[C@@H](O)[C@]1(C)O` [Roxithromycin] gave a z.score.t [1] of 0.3241.

Work on `CC(C)C(=O)Nc1ccc([N+](=O)[O-])c(C(F)(F)F)c1` [Flutamide] yielded a z.score.t [1] of 0.5856.

With `COc1cc(-c2ccc(N=Nc3ccc4c(S(=O)(=O)[O-])cc(S(=O)(=O)[O-])c(N)c4c3O)c(OC)c2)ccc1N=Nc1ccc2c(S(=O)(=O)[O-])cc(S(=O)(=O)[O-])c(N)c2c1O.[Na+].[Na+].[Na+].[Na+]` [Chicago sky blue 6B] the z.score.t [1] was 0.6578.

For `CCN1CCN(C(=O)N[C@@H](C(=O)N[C@@H]2C(=O)N3C(C(=O)O)=C(CSc4nnnn4C)CS[C@H]23)c2ccc(O)cc2)C(=O)C1=O` [Cefoperazone dihydrate], the z.score.t [1] was −0.7233.

`CN1CCC(=C2c3ccccc3Sc3ccccc32)CC1` [Pimethixene maleate] was tested, and the z.score.t [1] was −1.233.

`CCc1cc(C(N)=S)ccn1` [Ethionamide] was tested, and the z.score.t [1] was 0.3024.

In the case of `C=C(NC(=O)C(=C)NC(=O)c1csc(C2=N[C@@H]3c4csc(n4)[C@H]4NC(=O)c5csc(n5)[C@H]([C@](C)(O)[C@@H](C)O)NC(=O)[C@H]5CSC(=N5)/C(=C/C)NC(=O)[C@H]([C@@H](C)O)NC(=O)c5csc(n5)[C@]3(CC2)NC(=O)[C@H](C)NC(=O)C(=C)NC(=O)[C@H](C)NC(=O)[C@H]([C@@H](C)CC)N[C@@H]2C=Cc3c([C@H](C)O)cc(nc3[C@H]2O)C(=O)O[C@@H]4C)n1)C(N)=O` [Thiostrepton], the z.score.t was 0.6013.

Work on `CC(=O)N[C@@H](CC(=O)N[C@@H](CCC(=O)O)C(=O)O)C(=O)O` [Spaglumic acid] yielded a z.score.t [1] of 2.046.

`CNCC(O)c1ccc(OC(=O)C(C)(C)C)c(OC(=O)C(C)(C)C)c1` (stereo not shown) [Dipivefrin hydrochloride] showed a z.score.t [1] of −1.319.

`O=c1cc(-c2ccc(O)cc2)oc2cc(O)cc(O)c12` [Apigenin] gave a z.score.t [1] of −0.2904.

With `CNC(=C[N+](=O)[O-])NCCSCc1csc(CN(C)C)n1` [Nizatidine] the z.score.t [1] was −0.0788.

For `O=C1c2ccccc2C(=O)C1c1ccccc1` [Phenindione], the z.score.t [1] was 0.7312.

For `O=c1[nH]c(=O)n([C@H]2C[C@H](O)[C@@H](CO)O2)cc1I` [Idoxuridine], the z.score.t [1] was 0.8757.

`O=C1NCN(c2ccccc2)C12CCN(CCCC(c1ccc(F)cc1)c1ccc(F)cc1)CC2` [Fluspirilen] showed a z.score.t [1] of −1.399.

`NC(=O)NC1NC(=O)NC1=O` (stereo not shown) [Allantoin] was tested, and the z.score.t [1] was 0.8036.

`COP(=O)(OC)C(O)C(Cl)(Cl)Cl` (stereo not shown) [Trichlorfon] showed a z.score.t of −0.04944.

For `C[C@@H]1CC[C@@]2(NC1)O[C@H]1C[C@H]3[C@@H]4CC=C5C[C@@H](O)CC[C@]5(C)[C@H]4CC[C@]3(C)[C@H]1[C@@H]2C` [Solasodine], the z.score.t was 0.9178.

For `O=C(CCCN1CCN(c2ccccn2)CC1)c1ccc(F)cc1` [Azaperone], the z.score.t [1] was −0.9039.

`CN(C(=O)CN(CCO)CC(=O)N(C)C(C)(C)Cc1ccccc1)C(C)(C)Cc1ccccc1` [Oxethazaine] was tested, and the z.score.t [1] was −1.253.

`CC1=NCCc2c1[nH]c1cc(O)ccc21.Cl.O.O` [Harmalol hydrochloride dihydrate] was tested, and the z.score.t [1] was −0.7953.

`CCOc1cc(CC(=O)N[C@@H](CC(C)C)c2ccccc2N2CCCCC2)ccc1C(=O)O` [Repaglinide] showed a z.score.t [1] of −1.216.

`Nc1ncn([C@@H]2O[C@H](CO)[C@@H](O)[C@H]2O)c(=O)n1` [Azacytidine-5] showed a z.score.t [1] of −2.144.

In the case of `O=P1(NCCCl)OCCCN1CCCl` (stereo not shown) [Ifosfamide], the z.score.t [1] was 0.1469.

For `CCN(CC)CCOC(=O)C1(c2ccc([N+](=O)[O-])cc2)CCCC1.Cl` [Nitrocaramiphen hydrochloride], the z.score.t was 1.242.

With `C[C@]1(OC(=O)/C=C/c2ccccc2)C[C@@H](O)[C@]2(O)C=CO[C@@H](O[C@@H]3O[C@H](CO)[C@@H](O)[C@H](O)[C@H]3O)[C@@H]21` [Harpagoside] the z.score.t [1] was −0.8347.
